This assay relates to P388 leukemia ip, CD2F1 mice, survival T/C. Description: NCI In Vivo Anticancer Drug Screen. Data for tumor model P388 Leukemia (intraperitoneal) in CD2F1 (CDF1) mice. The note with it: endpoint: median survival time, higher = longer survival. In outline:
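Mice carrying the transplanted tumor received test compound or vehicle. Survival was recorded in each group, and the value is the treated-group measurement divided by that of the vehicle-treated control group.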

The mark [1] stands for this setting: dose: 100.0 mg/kg/injection, schedule: Q01DX005 (ip), vehicle: saline with Tween-80.
The mark [2] stands for this setting: dose: 200.0 mg/kg/injection, schedule: Q01DX005 (ip), vehicle: saline with Tween-80.
[3] abbreviates: dose: 50.0 mg/kg/injection, schedule: Q01DX005 (ip), vehicle: saline with Tween-80.
[4] abbreviates: dose: 50.0 mg/kg/injection, schedule: Q04DX002 (ip), vehicle: Klucel (hydroxypropylcellulose) (HPC).
The mark [5] stands for this setting: dose: 100.0 mg/kg/injection, schedule: Q04DX002 (ip), vehicle: Klucel (hydroxypropylcellulose) (HPC).
[6] abbreviates: dose: 100.0 mg/kg/injection, schedule: Q01DX009 (ip), vehicle: saline with Tween-80.
The mark [7] stands for this setting: dose: 200.0 mg/kg/injection, schedule: Q01DX009 (ip), vehicle: saline with Tween-80.
[8] abbreviates: dose: 400.0 mg/kg/injection, schedule: Q01DX009 (ip), vehicle: saline with Tween-80.
The mark [9] stands for this setting: dose: 50.0 mg/kg/injection, schedule: Q01DX009 (ip), vehicle: saline.
[10] abbreviates: dose: 50.0 mg/kg/injection, schedule: Q01DX009 (ip), vehicle: suspension in saline.
Setting [11] is: dose: 100.0 mg/kg/injection, schedule: Q01DX009 (ip), vehicle: saline.
Where [12] appears, read: dose: 200.0 mg/kg/injection, schedule: Q01DX009 (ip), vehicle: saline.

Several values for one entry are separate records, joined by “and”; a condition that tells them apart may be missing. Identical values can stand only once. Inconclusive results and toxic doses are left out.

As to `COC(C)C(O)(C(=O)OCC1=CC[N+]2([O-])CCC(O)C12)C(C)(C)O` (stereo not given), the T/C is 111 % of control (dose: 100.0 mg/kg/injection, schedule: Q01DX005 (ip), vehicle: other); 104 % of control under setting [1]; 102 % of control (dose: 200.0 mg/kg/injection, schedule: Q01DX005 (ip), vehicle: other); 112 % of control under setting [2]; 107 % of control (dose: 400.0 mg/kg/injection, schedule: Q01DX005 (ip), vehicle: saline with Tween-80); 111 % of control (dose: 800.0 mg/kg/injection, schedule: Q01DX005 (ip), vehicle: other). Further, the T/C by setting is: (dose: 800.0 mg/kg/injection, schedule: Q01DX005 (ip), vehicle: saline with Tween-80) 117 % of control; (dose: 1600.0 mg/kg/injection, schedule: Q01DX005 (ip), vehicle: saline with Tween-80) 112 % of control.
Turning to `COc1ccc2c(c1)CCC1C2=CCC2C(=O)OC(=O)C21C` (stereo not given), the T/C runs as follows: under setting [3], 103 % of control; under setting [1], 108 % of control.
`O=C(c1cccc2c1Oc1ccccc1S2)c1cccc2c1Oc1ccccc1S2`: the T/C under setting [3] is 113 % of control, the T/C under setting [1] was 103 % of control and the T/C under setting [2] is 103 % of control.
As to `CCCC(=O)Nc1ccc(C2=NNC(=O)C3CC23)cc1` (stereo not given), the T/C is, setting by setting: (dose: 50.0 mg/kg/injection, schedule: Q01DX005 (ip), vehicle: saline + Tween-80 + alcohol) 99 % of control; (dose: 100.0 mg/kg/injection, schedule: Q01DX005 (ip), vehicle: saline + Tween-80 + alcohol) 99 % of control; (dose: 200.0 mg/kg/injection, schedule: Q01DX005 (ip), vehicle: saline + Tween-80 + alcohol) 97 % of control.
For `CC(NC(=S)Nc1ccccc1)c1ccccc1` (stereo not given), the T/C was 100 % of control (dose: 25.0 mg/kg/injection, schedule: Q04DX002 (ip), vehicle: Klucel (hydroxypropylcellulose) (HPC)); 100 % of control under setting [4]; 96 % of control under setting [5].
Take `OCC1OC(n2cnc3c(=S)nc[nH]c32)C(O)C1O` (stereo not given): the T/C was 95 % of control (dose: 25.0 mg/kg/injection, schedule: Q01DX009 (ip), vehicle: saline sonified); 100 % of control (dose: 50.0 mg/kg/injection, schedule: Q01DX009 (ip), vehicle: saline sonified); 100 % of control (dose: 100.0 mg/kg/injection, schedule: Q01DX009 (ip), vehicle: saline sonified); 100 % of control under setting [6]; 100 % of control under setting [7]; 95 % of control under setting [8]. In addition, where the note is “dose: 800.0 mg/kg/injection, schedule: Q01DX009 (ip), vehicle: saline with Tween-80”, the T/C was 109 % of control.
Turning to `CCOC(=O)/C=C1/CC(C#N)(C(=O)NN)CO1` (stereo not given), the T/C was 102 % of control (dose: 100.0 mg/kg/injection, schedule: Q01DX001 (ip), vehicle: Klucel (hydroxypropylcellulose) (HPC)); 110 % of control (dose: 200.0 mg/kg/injection, schedule: Q01DX001 (ip), vehicle: Klucel (hydroxypropylcellulose) (HPC)); 100 % of control (dose: 400.0 mg/kg/injection, schedule: Q01DX001 (ip), vehicle: Klucel (hydroxypropylcellulose) (HPC)).
Take `CN(C)C(=O)Oc1ccc(OC(=O)N(C)C)c2ccccc12`: the T/C is 104 % of control (dose: 6.25 mg/kg/injection, schedule: Q01DX001 (ip), vehicle: Klucel (hydroxypropylcellulose) (HPC)); 104 % of control (dose: 12.5 mg/kg/injection, schedule: Q01DX001 (ip), vehicle: Klucel (hydroxypropylcellulose) (HPC)); 99 % of control and 100 % of control (dose: 25.0 mg/kg/injection, schedule: Q01DX001 (ip), vehicle: Klucel (hydroxypropylcellulose) (HPC)).
Take `O=C(/C=C/c1ccccc1)N1CCCCC1`: the T/C under setting [6] is 90 % of control, the T/C under setting [7] was 95 % of control and the T/C under setting [8] was 95 % of control.
`O=C1/C(=C\c2ccccc2)C/C1=C\c1ccccc1`: the T/C (dose: 100.0 mg/kg/injection, schedule: Q04DX003 (ip), vehicle: Klucel (hydroxypropylcellulose) (HPC)) was 97 % of control; the T/C (dose: 200.0 mg/kg/injection, schedule: Q04DX003 (ip), vehicle: Klucel (hydroxypropylcellulose) (HPC)) is 100 % of control; the T/C (dose: 400.0 mg/kg/injection, schedule: Q04DX003 (ip), vehicle: Klucel (hydroxypropylcellulose) (HPC)) was 95 % of control.
Turning to `Cc1cc(NC(=S)SCc2ccc(Cl)cc2)c([N+](=O)[O-])cc1C`, the T/C is 92 % of control under setting [9]; 108 % of control under setting [10]; 97 % of control under setting [11]; 92 % of control under setting [12]; 98 % of control (dose: 200.0 mg/kg/injection, schedule: Q01DX009 (ip), vehicle: suspension in saline).
Consider `COc1cc(NCCCCCCNC(C)C)c2nccc(C)c2c1`, for which the T/C is 91 % of control (dose: 3.13 mg/kg/injection, schedule: Q01DX009 (ip), vehicle: saline); 99 % of control (dose: 6.25 mg/kg/injection, schedule: Q01DX009 (ip), vehicle: saline); 99 % of control (dose: 12.5 mg/kg/injection, schedule: Q01DX009 (ip), vehicle: saline).
As to `COc1cc([N+](=O)[O-])cc2cc(C)c(=O)oc12`, the T/C was 99 % of control (dose: 50.0 mg/kg/injection, schedule: Q01DX009 (ip), vehicle: saline with Tween-80); 91 % of control under setting [6]; 91 % of control under setting [7].
Consider `O=C(C=C(C(F)(F)F)C(F)(F)F)c1ccc(C(=O)C=C(C(F)(F)F)C(F)(F)F)cc1`, for which the T/C was 118 % of control (dose: 50.0 mg/kg/injection, schedule: Q04DX003 (ip), vehicle: saline with Tween-80) and 100 % of control (dose: 100.0 mg/kg/injection, schedule: Q04DX003 (ip), vehicle: saline with Tween-80).
Take `Cc1c(-c2ccc(-c3ccccc3F)cc2)nc2ccc(F)cc2c1C(=O)O`: the T/C runs as follows: (dose: 5.62 mg/kg/injection, schedule: Q01DX005 (ip), vehicle: water) 120 % of control; (dose: 11.25 mg/kg/injection, schedule: Q01DX005 (ip), vehicle: water) 121 % of control; (dose: 45.0 mg/kg/injection, schedule: Q01DX005 (ip), vehicle: water) 157 % of control; (dose: 90.0 mg/kg/injection, schedule: Q01DX005 (ip), vehicle: water) 158 % of control.
For `NN=c1c2ccccc2oc2ccccc12`, the T/C (dose: 50.0 mg/kg/injection, schedule: Q01DX009 (ip), vehicle: Klucel (hydroxypropylcellulose) (HPC)) is 112 % of control; the T/C (dose: 100.0 mg/kg/injection, schedule: Q01DX009 (ip), vehicle: Klucel (hydroxypropylcellulose) (HPC)) is 115 % of control; the T/C (dose: 200.0 mg/kg/injection, schedule: Q01DX009 (ip), vehicle: Klucel (hydroxypropylcellulose) (HPC)) was 115 % of control.
Regarding `O=c1c2cc(Br)ccc2nc2n1N=C(c1ccccc1)C(c1ccccc1)=NN2`, the T/C was 88 % of control under setting [4]; 91 % of control under setting [5]; 87 % of control (dose: 200.0 mg/kg/injection, schedule: Q04DX002 (ip), vehicle: Klucel (hydroxypropylcellulose) (HPC)).
On to `CC(C)SC(=S)Nc1ccc(Cl)c(C(F)(F)F)c1`, for which the T/C is, setting by setting: under setting [9], 106 % of control; under setting [11], 105 % of control; under setting [12], 110 % of control.
With `Nc1nc2ccc(Br)cc2s1`, the T/C is 97 % of control under setting [10]; 86 % of control under setting [11]; 102 % of control (dose: 100.0 mg/kg/injection, schedule: Q01DX009 (ip), vehicle: suspension in saline).
Consider `CC(=O)C[n+]1ccccc1Cc1ccccc1`, for which the T/C by setting is: (dose: 25.0 mg/kg/injection, schedule: Q01DX005 (ip), vehicle: saline with Tween-80) 99 % of control; under setting [3], 100 % of control.
With `NC(CSC(c1ccccc1)c1ccccc1)C(=O)NCC(=O)O` (stereo not given), the T/C was 99 % of control (dose: 50.0 mg/kg/injection, schedule: Q01DX005 (ip), vehicle: Klucel (hydroxypropylcellulose) (HPC)); 99 % of control (dose: 100.0 mg/kg/injection, schedule: Q01DX005 (ip), vehicle: Klucel (hydroxypropylcellulose) (HPC)); 104 % of control (dose: 200.0 mg/kg/injection, schedule: Q01DX005 (ip), vehicle: Klucel (hydroxypropylcellulose) (HPC)).
For `N#CC(C(=O)CCc1nc2ccccc2[nH]1)c1nc2ccccc2s1` (stereo not given), the T/C reads like this: (dose: 60.0 mg/kg/injection, schedule: Q01DX005 (ip), vehicle: saline with Tween-80) 102 % of control; (dose: 120.0 mg/kg/injection, schedule: Q01DX005 (ip), vehicle: saline with Tween-80) 100 % of control; (dose: 240.0 mg/kg/injection, schedule: Q01DX005 (ip), vehicle: saline with Tween-80) 105 % of control.

Values taken from PubChem BioAssay AID330 (DTP/NCI, 2004).
